From PubChem BioAssay AID2060484 (Molecular Pharmacology Branch, DTP, NCI, 2025)

System: SUM149PT spheroids with HUVEC/MSC, viability
Assay: Anticancer human tumor SUM149PT cell line growth inhibition [GQUAD];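 note: spheroids exposed to drugs for seven days before readout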;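 for viability, T/C: percent viability relative to DMSO vehicle control taken as 100%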
Conditions: for IC50: curve of first compound; for viability, T/C: stronger effect = lower value
Method in brief: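 Viability of tumor cells grown as complex spheroids with endothelial and stromal cells, exposed to drug combinations. Top concentration at or near clinical Cmax (else 10 microM), diluted in half-log increments.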

[1] = second compound 0.0316 µM, first compound 0.0316 µM
[2] = second compound 0.0316 µM, first compound 0.1 µM
[3] = second compound 0.0316 µM, first compound 0.316 µM
[4] = second compound 0.0316 µM, first compound 1 µM
[5] = second compound 0.0316 µM, first compound 3.16 µM
[6] = second compound 0.0316 µM, first compound 10 µM
[7] = second compound 0.1 µM, first compound 0.0316 µM
[8] = second compound 0.1 µM, first compound 0.1 µM
[9] = second compound 0.1 µM, first compound 0.316 µM
[10] = second compound 0.1 µM, first compound 1 µM
[11] = second compound 0.1 µM, first compound 3.16 µM
[12] = second compound 0.1 µM, first compound 10 µM
[13] = second compound 0.316 µM, first compound 0.0316 µM
[14] = second compound 0.316 µM, first compound 0.1 µM
[15] = second compound 0.316 µM, first compound 0.316 µM
[16] = second compound 0.316 µM, first compound 1 µM
[17] = second compound 0.316 µM, first compound 3.16 µM
[18] = second compound 0.316 µM, first compound 10 µM
[19] = second compound 1 µM, first compound 0.0316 µM
[20] = second compound 1 µM, first compound 0.1 µM
[21] = second compound 1 µM, first compound 0.316 µM
[22] = second compound 1 µM, first compound 1 µM
[23] = second compound 1 µM, first compound 3.16 µM
[24] = second compound 1 µM, first compound 10 µM
[25] = second compound 3.16 µM, first compound 0.0316 µM
[26] = second compound 3.16 µM, first compound 0.1 µM
[27] = second compound 3.16 µM, first compound 0.316 µM
[28] = second compound 3.16 µM, first compound 1 µM
[29] = second compound 3.16 µM, first compound 3.16 µM
[30] = second compound 3.16 µM, first compound 10 µM
[31] = second compound 10 µM, first compound 0.0316 µM
[32] = second compound 10 µM, first compound 0.1 µM
[33] = second compound 10 µM, first compound 0.316 µM
[34] = second compound 10 µM, first compound 1 µM
[35] = second compound 10 µM, first compound 3.16 µM
[36] = second compound 10 µM, first compound 10 µM

Question: Which results are given for `C=CC(=O)N1CCN(c2nc(=O)n(-c3c(C)ccnc3C(C)C)c3nc(-c4c(O)cccc4F)c(F)cc23)C(C)C1` (stereo not drawn) + Cc1[nH]c2ccc(F)cc2c1-c1nc2c3cccnc3c3ncccc3c2[nH]1?
Answer: IC50 (second compound 0.0316 µM): > 10 µM; IC50 (second compound 0.1 µM): > 10 µM; IC50 (second compound 0.316 µM): > 10 µM; IC50 (second compound 1 µM): > 10 µM; IC50 (second compound 3.16 µM): > 10 µM; IC50 (second compound 10 µM): > 10 µM; viability, T/C [1]: 106%; viability, T/C [2]: 91.6%; viability, T/C [3]: 99.1%; viability, T/C [4]: 108%; viability, T/C [5]: 125%; viability, T/C [6]: 117%; viability, T/C [7]: 116%; viability, T/C [8]: 93.8%; viability, T/C [9]: 111%; viability, T/C [10]: 116%; viability, T/C [11]: 124%; viability, T/C [12]: 114%; viability, T/C [13]: 94.3%; viability, T/C [14]: 107%; viability, T/C [15]: 95.6%; viability, T/C [16]: 112%; viability, T/C [17]: 122%; viability, T/C [18]: 108%; viability, T/C [19]: 97.9%; viability, T/C [20]: 97.6%; viability, T/C [21]: 112%; viability, T/C [22]: 118%; viability, T/C [23]: 120%; viability, T/C [24]: 114%; viability, T/C [25]: 99.7%; viability, T/C [26]: 86%; viability, T/C [27]: 102%; viability, T/C [28]: 109%; viability, T/C [29]: 115%; viability, T/C [30]: 114%; viability, T/C [31]: 92%; viability, T/C [32]: 80.6%; viability, T/C [33]: 100%; viability, T/C [34]: 106%; viability, T/C [35]: 111%; viability, T/C [36]: 114%

Question: Which IC50 (second compound 0.0316 µM) does the source give for `C=CC(=O)N1CCN(c2nc(=O)n(-c3c(C)ccnc3C(C)C)c3nc(-c4c(O)cccc4F)c(F)cc23)C(C)C1` (stereo not drawn) + CN(C)c1ccc(Nc2c3ccc(NC(=O)CCN4CCCC4)cc3nc3cc(NC(=O)CCN4CCCC4)ccc23)cc1 here?
Answer: > 10 µM

Question: What about the IC50 (second compound 0.1 µM) of the same molecule?
Answer: > 10 µM

Question: And the IC50 (second compound 0.316 µM)?
Answer: > 10 µM

Question: And the IC50 (second compound 1 µM)?
Answer: > 10 µM

Question: What about the IC50 (second compound 3.16 µM) of the same molecule?
Answer: > 10 µM

Question: What about the IC50 (second compound 10 µM) of the same molecule?
Answer: > 10 µM

Question: And the viability, T/C [1]?
Answer: 106%

Question: And the viability, T/C [2]?
Answer: 101%

Question: What about the viability, T/C [3] of the same molecule?
Answer: 105%

Question: And the viability, T/C [4]?
Answer: 110%

Question: What about the viability, T/C [5] of the same molecule?
Answer: 122%

Question: And the viability, T/C [6]?
Answer: 101%

Question: And the viability, T/C [7]?
Answer: 99.7%

Question: And the viability, T/C [8]?
Answer: 102%

Question: What about the viability, T/C [9] of the same molecule?
Answer: 98.2%

Question: What about the viability, T/C [10] of the same molecule?
Answer: 113%

Question: And the viability, T/C [11]?
Answer: 115%

Question: And the viability, T/C [12]?
Answer: 108%

Question: What about the viability, T/C [13] of the same molecule?
Answer: 96.1%

Question: And the viability, T/C [14]?
Answer: 93.9%

Question: What about the viability, T/C [15] of the same molecule?
Answer: 110%

Question: And the viability, T/C [16]?
Answer: 114%

Question: What about the viability, T/C [17] of the same molecule?
Answer: 111%

Question: What about the viability, T/C [18] of the same molecule?
Answer: 101%

Question: And the viability, T/C [19]?
Answer: 96.5%

Question: And the viability, T/C [20]?
Answer: 86.5%

Question: What about the viability, T/C [21] of the same molecule?
Answer: 95.4%

Question: And the viability, T/C [22]?
Answer: 103%

Question: What about the viability, T/C [23] of the same molecule?
Answer: 113%

Question: And the viability, T/C [24]?
Answer: 96.7%

Question: What about the viability, T/C [25] of the same molecule?
Answer: 88.3%

Question: And the viability, T/C [26]?
Answer: 89.9%

Question: What about the viability, T/C [27] of the same molecule?
Answer: 103%

Question: And the viability, T/C [28]?
Answer: 104%

Question: What about the viability, T/C [29] of the same molecule?
Answer: 106%

Question: What about the viability, T/C [30] of the same molecule?
Answer: 85.4%

Question: What about the viability, T/C [31] of the same molecule?
Answer: 86.8%

Question: What about the viability, T/C [32] of the same molecule?
Answer: 82.9%

Question: And the viability, T/C [33]?
Answer: 92.6%

Question: What about the viability, T/C [34] of the same molecule?
Answer: 90%

Question: What about the viability, T/C [35] of the same molecule?
Answer: 100%

Question: And the viability, T/C [36]?
Answer: 69.2%

Question: For `C=CC(=O)N1CCN(c2nc(=O)n(-c3c(C)ccnc3C(C)C)c3nc(-c4c(O)cccc4F)c(F)cc23)C(C)C1` (stereo not drawn) + Cc1cnc(CNC(=O)c2c(=O)c3ccc(N4CCCN(C)CC4)nc3n3c2sc2ccccc23)cn1, which IC50 (second compound 0.0316 µM) is on record?
Answer: > 10 µM

Question: And the IC50 (second compound 0.1 µM)?
Answer: > 10 µM

Question: What about the IC50 (second compound 0.316 µM) of the same molecule?
Answer: > 10 µM

Question: And the IC50 (second compound 1 µM)?
Answer: < 0.0316 µM

Question: What about the IC50 (second compound 3.16 µM) of the same molecule?
Answer: < 0.0316 µM

Question: What about the IC50 (second compound 10 µM) of the same molecule?
Answer: < 0.0316 µM

Question: And the viability, T/C [1]?
Answer: 92.7%

Question: And the viability, T/C [2]?
Answer: 82.8%

Question: What about the viability, T/C [3] of the same molecule?
Answer: 103%

Question: And the viability, T/C [4]?
Answer: 103%

Question: And the viability, T/C [5]?
Answer: 123%

Question: And the viability, T/C [6]?
Answer: 106%

Question: And the viability, T/C [7]?
Answer: 62.4%

Question: What about the viability, T/C [8] of the same molecule?
Answer: 66.6%

Question: And the viability, T/C [9]?
Answer: 76.5%

Question: What about the viability, T/C [10] of the same molecule?
Answer: 77.1%

Question: What about the viability, T/C [11] of the same molecule?
Answer: 85.4%

Question: And the viability, T/C [12]?
Answer: 70%

Question: And the viability, T/C [13]?
Answer: 61.9%

Question: And the viability, T/C [14]?
Answer: 54.8%

Question: What about the viability, T/C [15] of the same molecule?
Answer: 56.5%

Question: And the viability, T/C [16]?
Answer: 65.9%

Question: What about the viability, T/C [17] of the same molecule?
Answer: 66.9%

Question: What about the viability, T/C [18] of the same molecule?
Answer: 59.3%

Question: And the viability, T/C [19]?
Answer: 50%

Question: What about the viability, T/C [20] of the same molecule?
Answer: 46.1%

Question: And the viability, T/C [21]?
Answer: 48.7%

Question: And the viability, T/C [22]?
Answer: 51.6%

Question: And the viability, T/C [23]?
Answer: 56.3%

Question: And the viability, T/C [24]?
Answer: 46.7%

Question: What about the viability, T/C [25] of the same molecule?
Answer: 40.7%

Question: And the viability, T/C [26]?
Answer: 38.4%

Question: And the viability, T/C [27]?
Answer: 42.5%

Question: And the viability, T/C [28]?
Answer: 45.6%

Question: And the viability, T/C [29]?
Answer: 47%

Question: What about the viability, T/C [30] of the same molecule?
Answer: 41.2%

Question: What about the viability, T/C [31] of the same molecule?
Answer: 0.28%

Question: What about the viability, T/C [32] of the same molecule?
Answer: 2.73%

Question: What about the viability, T/C [33] of the same molecule?
Answer: 1.23%

Question: What about the viability, T/C [34] of the same molecule?
Answer: 2.1%

Question: And the viability, T/C [35]?
Answer: 3.34%

Question: And the viability, T/C [36]?
Answer: 0.29%

Question: What does the source list for `C=CCn1c(=O)c2cnc(Nc3ccc(N4CCN(C)CC4)cc3)nc2n1-c1cccc(C(C)(C)O)n1` + Cc1cnc(CNC(=O)c2c(=O)c3ccc(N4CCCN(C)CC4)nc3n3c2sc2ccccc23)cn1?
Answer: IC50 (second compound 0.0316 µM): 0.0686 µM; IC50 (second compound 0.1 µM): < 0.0316 µM; IC50 (second compound 0.316 µM): < 0.0316 µM; IC50 (second compound 1 µM): < 0.0316 µM; IC50 (second compound 3.16 µM): < 0.0316 µM; IC50 (second compound 10 µM): < 0.0316 µM; viability, T/C [1]: 74.3%; viability, T/C [2]: 37%; viability, T/C [3]: 22.9%; viability, T/C [4]: 14.2%; viability, T/C [5]: 9.59%; viability, T/C [6]: 8.42%; viability, T/C [7]: 42.7%; viability, T/C [8]: 34.8%; viability, T/C [9]: 18.6%; viability, T/C [10]: 16.3%; viability, T/C [11]: 9.24%; viability, T/C [12]: 8.01%; viability, T/C [13]: 45.9%; viability, T/C [14]: 32.1%; viability, T/C [15]: 21.3%; viability, T/C [16]: 16.5%; viability, T/C [17]: 11.3%; viability, T/C [18]: 8.57%; viability, T/C [19]: 34.5%; viability, T/C [20]: 25.6%; viability, T/C [21]: 20.6%; viability, T/C [22]: 17.7%; viability, T/C [23]: 13.7%; viability, T/C [24]: 11.5%; viability, T/C [25]: 32.9%; viability, T/C [26]: 26.3%; viability, T/C [27]: 20.3%; viability, T/C [28]: 16.7%; viability, T/C [29]: 12.7%; viability, T/C [30]: 10.6%; viability, T/C [31]: 0.17%; viability, T/C [32]: 1.7%; viability, T/C [33]: 0.84%; viability, T/C [34]: 1.14%; viability, T/C [35]: 0.21%; viability, T/C [36]: 2.8%
